Source: a melting point compilation (Tetko et al.; mined from patent text by program, amines drawn as free bases though some values may be those of a salt)

Row | Structure (SMILES) | melting point [°C]
1 | CCOC(=O)CNc1ncccc1NC(=O)c1ccccc1Cl | 111 to 112
2 | CC(=O)OC[C@@H]1CCCN1C(c1ccccc1)(c1ccccc1)c1ccccc1Cl | 102 to 104
3 | Cc1nc2c3c(c(C(=O)NCCO)cc2n1C)CCC(c1ccccc1)O3 (centres undefined) | 228 to 229
4 | CCN(Cc1cc(-c2ncco2)ccc1-c1ccccc1S(=O)(=O)Nc1onc(C)c1C)CC(F)(F)F | 55 to 65
5 | CCCc1nc(NC)nc(N2CCOCC2)n1 | 131 to 133
6 | CNC(C)C1CCN(c2nc3c(cc2F)c(=O)c(C(=O)O)cn3C2CC2)C1 (centres undefined) | 199 to 202
7 | Nc1nc2ccccc2c2c1nc(CCCOc1ccccc1)n2CCCNC(=O)c1ccc(Br)cc1 | 186 to 187
8 | COc1cc(C(=O)N2Cc3ccc(C(=O)NCc4cccnc4)n3Cc3ccccc32)ccc1-c1ccccc1C | 165 to 167
9 | CC1(C)c2ccccc2C(C#N)c2ccccc21 | 91 to 92
10 | COc1cc(OC)cc(C(=CC#N)c2ccc(OC)c(N)c2)c1 | 93 to 95
11 | CC(C)C(O)=C(C#N)C#N | 92 to 93
12 | COc1ccccc1Cc1c(Cl)ncnc1Cl | 95 to 96
13 | C=C=C[C@]12CCC(=O)C=C1C(=O)C[C@@H]1[C@@H]2CC[C@]2(C)C(=O)CC[C@@H]12 | 187 to 190
14 | CC(=O)c1cc(F)c(O)c(F)c1 | 141 to 143
15 | COc1ccc2c(c1)C(=O)Cc1c(C#N)cccc1S2 | 186 to 187
16 | CCCc1c(C(=O)C(C)C)c2ccc(C(=O)OCc3ccccc3)cc2n1C(=O)c1ccccc1Cl | 67.5 to 70
17 | CC1(C)OC(=O)Nc2ccc(-c3ccc(N)nc3)cc21 | 257 to 259
18 | Cc1nnc(-c2ccc3occ(-c4ccc(C(=O)O)c(F)c4)c3c2)o1 | 282 to 283
19 | Cc1nc(F)c(S(C)(=O)=O)c(F)n1 | 120 to 123
20 | CCC(c1ccc(Br)cc1)N(O)C(=O)NC (centres undefined) | 110 to 112
21 | Nc1nc(=O)n(CC2CC2)cc1F | 224 to 226
22 | O=C1CC=C(c2ccc(Cl)cc2)CC1 | 59 to 62
23 | CNc1cc(Oc2cccc(C(F)(F)F)c2)nc(C(=O)Nc2ccccc2)c1 | 158 to 160
24 | CCCCCNc1cccc2c1CN(C1CCC(=O)NC1=O)C2=O (centres undefined) | 244 to 246
25 | COC(=O)c1sc(-c2ccc(C)cc2)cc1NC(C)=O | 127 to 129

Row | Structure (SMILES) | melting point [°C]
26 | CC(C)NC(=O)C(O)C(Oc1ccccc1)c1ccccc1 (centres undefined) | 166 to 168
27 | CCOC(=O)CCC(=O)CSc1nc2cc(Cl)c(F)cc2c(O)c1C(=O)OCC | 144
28 | CSCC(C)(C)NC(=O)c1c(I)cccc1Oc1ccc(Cl)cc1C | 128 to 130
29 | c1ccc(CN2CCC3(CC2)OCCCO3)cc1 | < 50
30 | CCOc1ccc2c(c1)n(C1CCCCC1)c(=O)n2S(=O)(=O)c1ccc(NC(=O)NC(C)(C)C)cc1OC | 237
31 | CCOC(=O)C1=C(c2ccc(OC)c(OC)c2)c2ccccc2C1=O | 130
32 | OCCON=Cc1ccc(-c2ccccc2)nc1 | 100 to 101
33 | O=C(NCCSC(c1ccccc1)(c1ccccc1)c1ccccc1)c1cc2cccc(OCc3ccccc3)c2[nH]1 | 156 to 157
34 | COc1ccc(C(=O)Cc2ncccc2C(=O)O)cc1 | 158 to 163
35 | CC(C)N1CCC(c2c[nH]c3ccc(NS(C)(=O)=O)cc23)CC1 | 104 to 108
36 | CS(=O)(=O)Nc1c(C(=O)c2ccccc2)[nH]c2cc(Cl)ccc12 | 215 to 218
37 | Cc1nc(-n2cnn(CC3CC3)c2=O)sc1C(=O)NCc1ccccn1 | 160 to 161
38 | NS(=O)(=O)c1ccc(-n2c(-c3ccccc3)csc2=S)cc1 | 235
39 | CC(C)c1ccc(-n2nc(O)c3[nH]c4cc(Cl)ccc4c(=O)c3c2=O)cc1 | 323 to 326
40 | C=Cn1ccnc1C=O | 48 to 51
41 | COC(=O)c1cc2ccc(OC)cc2c2c1C=CC(c1ccc(OC)cc1)(c1ccc(OC)cc1)O2 | 162 to 164
42 | COc1ccc2c(c1)C(O)c1cc(CO)ccc1O2 (centres undefined) | 142 to 143
43 | Brc1ccc2c3nc4ccccc4[nH]c-3nc2c1 | > 300
44 | CCN(CC)Cc1ccc2nc(-c3ccccc3F)cc(OCc3ccccc3)c2c1 | 51.2 to 51.5
45 | CC(C)C1=Nc2ccccc2N(C)C(=O)C1N (centres undefined) | 167 to 168
46 | COC(=O)CCC(=O)c1ccc(OC(=S)N(C)C)cc1 | 62 to 64
47 | COc1ccccc1CCC(C)(O)CC1CCCCN1 (centres undefined) | 115 to 116
48 | CCCc1c(OCCCCCCc2cc(OC)c(OC)cc2F)ccc(C(=O)O)c1O | 127 to 130
49 | Cc1c(-c2ccc(F)cc2)n(Cc2ccc(OCCN3CCCCCC3)cc2)c2ccc(O)cc12 | 181 to 184

Further lines, results first:

Row | melting point [°C] | Structure (SMILES)
50 | 160 | CC(C)C(O)c1ccc2oc3ncccc3c(=O)c2c1 (centres undefined)
51 | 172 to 173 | Cc1cc(C(=O)O)ccc1-c1c(C)cccc1C
52 | 50 to 52 | Oc1ccc(C(F)(F)F)cc1C=S
53 | 122 | N#CCCN1CCN(P(=S)(N2CCN(CCC#N)CC2)N2CCN(CCC#N)CC2)CC1
54 | 79 to 81 | O=C(OCCBr)N1CCCSC1=C[N+](=O)[O-]
55 | 248 to 251 | COCCn1cc2c(C3C(=O)Nc4ccc(Br)cc43)nc(NCCC3CCNCC3)nc2n1 (centres undefined)
56 | 146 | CCCN(c1cc(C)ccn1)c1cccc2c1OC[C@H]2Nc1ccc2c(c1)OC[C@H]2CC(=O)O
57 | 51 to 54 | COC(=O)c1ccsc1S(=O)(=O)Cl
58 | 96 | Cc1ccc(=S)n(-c2cccc(C(F)(F)F)c2)c1
59 | 53 to 55 | CCOC(=O)C1CN(C(C)=O)CCC1=O (centres undefined)
60 | 40 to 44 | COc1ccc2cc([C@H](C)C(=O)NOCC(=O)NCCO[N+](=O)[O-])ccc2c1
61 | 116 to 118 | COc1ccc(C(=O)O)nc1Oc1cccc(C(F)(F)F)c1
62 | 117 to 119 | CCOC(=O)[C@H]1C=C[C@H](c2ccccc2)n2c(=O)n(CCCl)c(=O)n21 (relative stereo)
63 | 227 to 228 | Cc1ccc(-n2c(-c3ccccc3)c(Br)c(Br)c2-c2ccccc2)cc1
64 | 250 to 255 | CCOC(=O)c1ncc2[nH]c3ccc(I)cc3c2c1C
65 | 70 to 72 | CC(C)c1cn2cccc(C=O)c2n1
66 | 130 to 133 | COc1ccc(-c2cc(CO)c(=O)n(CCCc3ccc(F)cc3)n2)cc1F
67 | 92 | Cc1cc2c(N=C=S)cccc2cn1
68 | 53.5 to 54 | COC(=O)CCCCc1ccc(C(=O)Cc2ccccc2)cc1
69 | 85.5 | C=CCc1c(OCCCOc2ccc3c(c2)OC(C(=O)O)CC3)ccc(C(C)=O)c1OC (centres undefined)
70 | 152 to 154 | CCOC(=O)C1CSCCN1C(=O)Nc1ccc(Cl)cc1 (centres undefined)
71 | 127 to 130 | CC(C)(C)OC(=O)N[C@@H](C(=O)N1CCC[C@H]1C(=O)NCC1CCc2nc(N)ncc2C1)C(c1ccccc1)c1ccccc1 (some centres undefined)
72 | 130 to 131 | CCc1cccc(CC(=O)O)c1OCCCc1cn(-c2ccc(C(F)(F)F)cn2)nc1C(CC)CC
73 | 155 to 159 | Cc1c(O)cc2c(c1C)N(C=O)C(C)C2 (centres undefined)
74 | 105 to 107 | Nc1ncnc2c1c(-c1ccc(OCc3ccccc3)cc1)cn2-c1ccc(OCCn2ccnc2)cc1
75 | > 260 | Cc1ccccc1NC(=O)NCc1cccc2c1C(=O)N(C1CCC(=O)NC1=O)C2=O (centres undefined)
76 | 148 to 151 | CCN1N=C(c2ccc(F)cc2)c2cc(F)ccc2CS1(=O)=O
77 | 114 to 116 | CSCCSc1nc(C(C)(C)C)n[nH]1

Row | melting point [°C] | Structure (SMILES)
78 | 90 to 92 | COc1ccccc1CS(=O)(=O)Cc1ccccc1OC
79 | 64.5 to 65.5 | CC(C)OC(=O)Nc1cc(C2CC2)on1
80 | 112 to 113 | C=CC[C@@H](CO)[C@@H](O)[C@H](O)C(=O)CO
81 | 177 to 180 | Cc1[nH]cnc1CSCCNC1=C([N+](=O)[O-])CN(Cc2ccccc2)CN1
82 | 86 to 88 | CCCc1c(CO)ncn1S(=O)(=O)N(C)C
83 | 107 to 109 | O=C(Nc1ccccc1)OC1C=CC2COC1O2 (centres undefined)
84 | 104 to 105 | CCOC(=O)CCc1cn(Cc2ccc(OCc3cn4c(-c5ccccc5)cccc4n3)cc2)nc1OCC
85 | 135 to 136 | CC(C)Oc1cc(CCC(=O)NS(=O)(=O)C(C)C)n(Cc2ccc(Cl)cc2Cl)n1
86 | 237 to 239 | COc1cc(Cl)ccc1C(=O)Nc1ccc(C(=O)N2Cc3ccccc3Cc3ccccc32)cc1
87 | 161 to 162 | CS(=O)(=O)c1ccc(C2=C(c3ccccc3)C(=O)OC2)cc1F
88 | 32 to 34 | COC(=O)CSc1cccc(Br)n1
89 | 69 to 71 | N#Cc1c(Cl)ccc(F)c1Cl
90 | 149 to 150 | CC(C)(C)c1cc(C[C@@H]2SCNC2=O)cc(C(C)(C)C)c1O
91 | 240 to 241 | CN1CCN(CC(=O)N2c3ccccc3C(=S)Nc3cccnc32)CC1
92 | 44.5 to 46.5 | O=C1CC=C(c2ccc(F)cc2)CC1
93 | 250 to 251 | COc1ccc(C(=O)Nc2ccccc2)cc1NS(=O)(=O)c1ccc(NC(C)=O)cc1
94 | 223 to 226 | NC(=O)c1ccc(Nc2ccncc2)cc1
95 | 258 to 260 | CC(C)n1nc(-c2c(N)nc(N)nc2-c2ccccc2)ccc1=O
96 | 128 to 131 | O=C(Nc1ccc(Cl)cc1)N(CCCN1CCC(Cc2ccccc2)CC1)c1ccc(Cl)c(Cl)c1
97 | 150 to 152 | CC(C)(C)N(CCc1ccccc1)NC(=O)c1ccccc1
98 | 205 to 207 | Cn1cc(C(=O)NCCC2CCN(S(=O)(=O)NC(=O)NC3CCCCC3)CC2)c(=O)n(C)c1=O
99 | 195 | Cc1ccc2c(c1)C=Cc1cc(C)ccc1C2c1cn(Cc2ccc(C(=O)N[C@@H](CC(=O)O)C(=O)O)o2)c(=O)[nH]c1=S
100 | 125 to 127 | CN(C)c1ccc2c3c(cccc13)C(=O)c1ccccc1-2
101 | 275 to 277 | CCCCNc1nc2c(C(=O)OCC)cnn2c2c1cnc1c2cnn1CC
102 | 88 to 92 | CCCCNS(=O)(=O)CC(O)C(O)C(CC1CCCCC1)NC(=O)CCC(C)C (centres undefined)
103 | 164 to 165 | CC1Nc2ccccc2C(=O)N1CCN1CCC(c2noc3cc(F)ccc23)CC1 (centres undefined)
104 | 163 | Oc1cnc(C2CCCCC2)nc1
